Measurements published in publication PMC7988029, “Growth optimization and identification of an ω-transaminase by a novel native PAGE activity staining method in a Bacillus sp. strain BaH isolated from Iranian soil” (AMB Express, 2021).
Like-named read-outs stand apart in the source and are kept apart here.

Test system: T1, BaH-ω-TA
T1 construct: gene omega-TA; native enzyme in unpurified crude extract of the wild-type strain; one activity band on native PAGE
Test: acetophenone formation by HPLC, Michaelis-Menten non-linear fit
Assay type: biochemical, Bacillus sp. BaH
Conditions: 0.1 mM PLP, Britton-Robinson buffer pH 6, 15 % DMSO, 35 °C, 1 mg/mL crude extract, read-out: apparent Km

Structure (SMILES) | Km (60 mM pyruvate) [mM] | Km (70 mM (S)-MBA) [mM]
C[C@H](N)c1ccccc1 [(S)-MBA] | 2.6 | 
CC(=O)C(=O)O [pyruvate] |  | 17.3
